ChEMBL document CHEMBL5579809, “Exploration of bromodomain ligand-linker conjugation sites for efficient CBP/p300 heterobifunctional degrader activity” (Bioorg Med Chem Lett, 2024)
Calls of active or inactive are those of the source. No cut-off for these calls is given here.

Legend:
[1] = biological target: Protein cereblon/Bromodomain-containing protein 4 (Homo sapiens) (UniProt O60885+Q96SW2); experiment: PROTAC activity at CRBN/HiBiT-tagged BRD4 in human HAP1 cells assessed as induction of BRD4 degradation measured over 24 hrs by luminescence based analysis; assay type: cell-based
Chain of Protein cereblon/Bromodomain-containing protein 4 (Homo sapiens) (Q96SW2 whole entry, looked up, other chains not shown): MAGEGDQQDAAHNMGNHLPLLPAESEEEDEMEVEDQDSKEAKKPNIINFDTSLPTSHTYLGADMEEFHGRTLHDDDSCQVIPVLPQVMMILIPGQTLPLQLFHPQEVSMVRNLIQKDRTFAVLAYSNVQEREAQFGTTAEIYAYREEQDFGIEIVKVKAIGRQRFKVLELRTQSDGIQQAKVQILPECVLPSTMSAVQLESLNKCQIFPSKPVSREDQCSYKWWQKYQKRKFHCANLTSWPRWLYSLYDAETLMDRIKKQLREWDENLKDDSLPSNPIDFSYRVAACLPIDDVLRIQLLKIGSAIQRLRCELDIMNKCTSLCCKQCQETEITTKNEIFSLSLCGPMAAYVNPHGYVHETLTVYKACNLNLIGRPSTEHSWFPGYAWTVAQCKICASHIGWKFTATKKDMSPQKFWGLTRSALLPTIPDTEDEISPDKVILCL

[2] = biological target: T1, Protein cereblon/CREB-binding protein (Homo sapiens) (UniProt Q92793+Q96SW2); experiment: PROTAC activity at CRBN/HiBiT-tagged CBP in human HAP1 cells assessed as total cumulative degradation by measuring AUC at 10 nM measured over 24 hrs by luminescence based analysis; assay type: cell-based
[3] = biological target: T2, Protein cereblon/Histone acetyltransferase p300 (Homo sapiens) (UniProt Q09472+Q96SW2); experiment: PROTAC activity at CRBN/HiBiT-tagged p300 in human HAP1 cells assessed as total cumulative degradation by measuring AUC at 1 nM measured over 24 hrs by luminescence based analysis; assay type: cell-based
T2 sequence (Q09472 2-2414 limits assumed): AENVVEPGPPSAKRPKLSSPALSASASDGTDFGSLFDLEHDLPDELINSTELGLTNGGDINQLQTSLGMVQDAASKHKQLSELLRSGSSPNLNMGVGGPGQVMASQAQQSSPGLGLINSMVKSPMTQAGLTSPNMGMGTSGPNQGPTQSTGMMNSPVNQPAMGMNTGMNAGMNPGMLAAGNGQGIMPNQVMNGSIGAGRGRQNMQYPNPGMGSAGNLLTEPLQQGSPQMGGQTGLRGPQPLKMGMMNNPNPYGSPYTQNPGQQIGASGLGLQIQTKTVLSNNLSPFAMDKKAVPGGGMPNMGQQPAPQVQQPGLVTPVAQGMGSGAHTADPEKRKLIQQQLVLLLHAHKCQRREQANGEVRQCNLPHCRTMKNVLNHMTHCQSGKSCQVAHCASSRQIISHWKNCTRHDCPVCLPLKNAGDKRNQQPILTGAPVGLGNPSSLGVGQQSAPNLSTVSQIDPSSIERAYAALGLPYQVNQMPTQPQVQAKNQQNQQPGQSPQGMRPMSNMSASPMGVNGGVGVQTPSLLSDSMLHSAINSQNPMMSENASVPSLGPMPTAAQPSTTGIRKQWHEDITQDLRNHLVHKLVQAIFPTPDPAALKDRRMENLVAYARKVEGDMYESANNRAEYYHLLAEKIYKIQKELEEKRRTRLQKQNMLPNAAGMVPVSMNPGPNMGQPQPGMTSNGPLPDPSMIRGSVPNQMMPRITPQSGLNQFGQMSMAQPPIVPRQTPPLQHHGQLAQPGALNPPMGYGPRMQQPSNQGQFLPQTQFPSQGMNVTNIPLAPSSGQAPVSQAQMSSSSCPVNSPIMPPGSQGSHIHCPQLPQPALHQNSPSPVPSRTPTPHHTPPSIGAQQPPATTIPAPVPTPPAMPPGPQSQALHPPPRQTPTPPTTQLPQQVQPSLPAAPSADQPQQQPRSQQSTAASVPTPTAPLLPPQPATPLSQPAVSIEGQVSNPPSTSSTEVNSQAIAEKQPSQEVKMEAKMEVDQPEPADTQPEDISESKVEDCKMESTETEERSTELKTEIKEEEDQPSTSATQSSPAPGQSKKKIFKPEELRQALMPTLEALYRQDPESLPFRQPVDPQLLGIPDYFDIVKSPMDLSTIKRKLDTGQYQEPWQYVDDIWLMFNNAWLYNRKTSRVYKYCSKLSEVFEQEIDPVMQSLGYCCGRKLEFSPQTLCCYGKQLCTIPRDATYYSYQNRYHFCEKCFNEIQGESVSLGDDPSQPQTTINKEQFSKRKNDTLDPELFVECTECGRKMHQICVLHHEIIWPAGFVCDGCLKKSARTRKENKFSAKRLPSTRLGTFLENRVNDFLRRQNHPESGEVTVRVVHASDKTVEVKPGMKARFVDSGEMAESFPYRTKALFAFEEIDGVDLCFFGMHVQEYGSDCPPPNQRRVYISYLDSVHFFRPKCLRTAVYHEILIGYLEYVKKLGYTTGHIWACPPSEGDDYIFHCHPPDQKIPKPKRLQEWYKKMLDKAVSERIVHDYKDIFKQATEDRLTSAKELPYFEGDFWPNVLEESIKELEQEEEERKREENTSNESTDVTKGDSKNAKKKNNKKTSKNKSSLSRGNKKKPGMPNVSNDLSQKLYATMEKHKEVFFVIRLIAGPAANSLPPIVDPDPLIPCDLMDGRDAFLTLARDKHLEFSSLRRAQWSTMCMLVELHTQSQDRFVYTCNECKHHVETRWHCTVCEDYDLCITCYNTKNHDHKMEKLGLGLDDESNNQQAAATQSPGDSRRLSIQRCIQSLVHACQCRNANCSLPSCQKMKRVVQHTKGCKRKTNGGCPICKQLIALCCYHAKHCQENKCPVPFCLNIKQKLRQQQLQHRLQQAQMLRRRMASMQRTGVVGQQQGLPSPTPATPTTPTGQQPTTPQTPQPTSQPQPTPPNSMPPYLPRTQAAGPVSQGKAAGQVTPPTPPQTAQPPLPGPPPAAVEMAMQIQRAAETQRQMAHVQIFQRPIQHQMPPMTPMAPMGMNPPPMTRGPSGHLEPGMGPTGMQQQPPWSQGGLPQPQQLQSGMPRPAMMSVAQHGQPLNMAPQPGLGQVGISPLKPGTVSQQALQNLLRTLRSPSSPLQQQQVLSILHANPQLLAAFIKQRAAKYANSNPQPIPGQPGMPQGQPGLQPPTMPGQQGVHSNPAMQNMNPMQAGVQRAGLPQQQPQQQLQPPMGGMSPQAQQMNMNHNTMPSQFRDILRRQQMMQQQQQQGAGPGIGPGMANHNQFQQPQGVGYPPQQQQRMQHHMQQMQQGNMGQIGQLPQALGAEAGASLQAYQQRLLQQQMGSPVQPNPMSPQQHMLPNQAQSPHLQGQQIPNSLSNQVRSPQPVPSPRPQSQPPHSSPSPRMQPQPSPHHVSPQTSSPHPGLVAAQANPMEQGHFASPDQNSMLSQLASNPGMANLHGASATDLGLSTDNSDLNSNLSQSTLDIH
T2 sequence (Q96SW2 whole entry partner): as the sequence (Q96SW2 whole entry, looked up, other chains not shown) above

[4] = biological target: T2, Protein cereblon/Histone acetyltransferase p300 (Homo sapiens); experiment: PROTAC activity at CRBN/HiBiT-tagged p300 in human HAP1 cells assessed as induction of p300 degradation by measuring degradation rate at 10 nM measured over 24 hrs by luminescence based analysis; assay type: cell-based
[5] = biological target: T1, Protein cereblon/CREB-binding protein (Homo sapiens); experiment: PROTAC activity at CRBN/HiBiT-tagged CBP in human HAP1 cells assessed as induction of CBP degradation by measuring degradation rate at 0.1 nM measured over 24 hrs by luminescence based analysis; assay type: cell-based
[6] = biological target: T1, Protein cereblon/CREB-binding protein (Homo sapiens); experiment: PROTAC activity at CRBN/HiBiT-tagged CBP in human HAP1 cells assessed as total cumulative degradation by measuring AUC at 0.1 nM measured over 24 hrs by luminescence based analysis; assay type: cell-based
[7] = biological target: T1, Protein cereblon/CREB-binding protein (Homo sapiens); experiment: PROTAC activity at CRBN/HiBiT-tagged CBP in human HAP1 cells assessed as total cumulative degradation by measuring AUC at 1000 nM measured over 24 hrs by luminescence based analysis; assay type: cell-based
[8] = biological target: T1, Protein cereblon/CREB-binding protein (Homo sapiens); experiment: PROTAC activity at CRBN/HiBiT-tagged CBP in human HAP1 cells assessed as induction of CBP degradation by measuring maximal efficacy at 0.1 nM measured over 24 hrs by luminescence based analysis relative to control; assay type: cell-based
[9] = biological target: T2, Protein cereblon/Histone acetyltransferase p300 (Homo sapiens); experiment: PROTAC activity at CRBN/HiBiT-tagged p300 in human HAP1 cells assessed as induction of p300 degradation by measuring maximal efficacy at 1 nM measured over 24 hrs by luminescence based analysis relative to control; assay type: cell-based
[10] = biological target: T1, Protein cereblon/CREB-binding protein (Homo sapiens); experiment: PROTAC activity at CRBN/HiBiT-tagged CBP in human HAP1 cells assessed as total cumulative degradation by measuring AUC at 100 nM measured over 24 hrs by luminescence based analysis; assay type: cell-based
[11] = biological target: T1, Protein cereblon/CREB-binding protein (Homo sapiens); experiment: PROTAC activity at CRBN/HiBiT-tagged CBP in human HAP1 cells assessed as induction of CBP degradation by measuring degradation rate at 100 nM measured over 24 hrs by luminescence based analysis; assay type: cell-based
[12] = biological target: T2, Protein cereblon/Histone acetyltransferase p300 (Homo sapiens); experiment: PROTAC activity at CRBN/HiBiT-tagged p300 in human HAP1 cells assessed as total cumulative degradation by measuring AUC at 0.01 nM measured over 24 hrs by luminescence based analysis; assay type: cell-based
[13] = biological target: T2, Protein cereblon/Histone acetyltransferase p300 (Homo sapiens); experiment: PROTAC activity at CRBN/HiBiT-tagged p300 in human HAP1 cells assessed as induction of p300 degradation by measuring degradation rate at 1 nM measured over 24 hrs by luminescence based analysis; assay type: cell-based
[14] = biological target: T2, Protein cereblon/Histone acetyltransferase p300 (Homo sapiens); experiment: Binding affinity to recombinant CRBN/p300 bromodomain (unknown origin) assessed as ternary complex formation at 10 to 100 nM by Alphascreen-based proximity assay; assay type: protein assay; conditions: dose 10-100 nM
[15] = biological target: T2, Protein cereblon/Histone acetyltransferase p300 (Homo sapiens); experiment: PROTAC activity at CRBN/HiBiT-tagged p300 in human HAP1 cells assessed as induction of p300 degradation by measuring degradation rate at 1000 nM measured over 24 hrs by luminescence based analysis; assay type: cell-based
[16] = biological target: T1, Protein cereblon/CREB-binding protein (Homo sapiens); experiment: PROTAC activity at CRBN/HiBiT-tagged CBP in human HAP1 cells assessed as induction of CBP degradation by measuring degradation rate at 1000 nM measured over 24 hrs by luminescence based analysis; assay type: cell-based
[17] = biological target: T2, Protein cereblon/Histone acetyltransferase p300 (Homo sapiens); experiment: PROTAC activity at CRBN/HiBiT-tagged p300 in human HAP1 cells assessed as total cumulative degradation by measuring AUC at 10 nM measured over 24 hrs by luminescence based analysis; assay type: cell-based
[18] = biological target: T2, Protein cereblon/Histone acetyltransferase p300 (Homo sapiens); experiment: PROTAC activity at CRBN/HiBiT-tagged p300 in human HAP1 cells assessed as total cumulative degradation by measuring AUC at 100 nM measured over 24 hrs by luminescence based analysis; assay type: cell-based
[19] = biological target: T2, Protein cereblon/Histone acetyltransferase p300 (Homo sapiens); experiment: PROTAC activity at CRBN/HiBiT-tagged p300 in human HAP1 cells assessed as induction of p300 degradation by measuring maximal efficacy at 10 nM measured over 24 hrs by luminescence based analysis relative to control; assay type: cell-based
[20] = biological target: T1, Protein cereblon/CREB-binding protein (Homo sapiens); experiment: PROTAC activity at CRBN/HiBiT-tagged CBP in human HAP1 cells assessed as induction of CBP degradation by measuring maximal efficacy at 100 nM measured over 24 hrs by luminescence based analysis relative to control; assay type: cell-based
[21] = biological target: T2, Protein cereblon/Histone acetyltransferase p300 (Homo sapiens); experiment: PROTAC activity at CRBN/HiBiT-tagged p300 in human HAP1 cells assessed as total cumulative degradation by measuring AUC at 1000 nM measured over 24 hrs by luminescence based analysis; assay type: cell-based
[22] = biological target: T1, Protein cereblon/CREB-binding protein (Homo sapiens); experiment: PROTAC activity at CRBN/HiBiT-tagged CBP in human HAP1 cells assessed as induction of CBP degradation by measuring maximal efficacy at 1000 nM measured over 24 hrs by luminescence based analysis relative to control; assay type: cell-based
[23] = biological target: T1, Protein cereblon/CREB-binding protein (Homo sapiens); experiment: PROTAC activity at CRBN/HiBiT-tagged CBP in human HAP1 cells assessed as total cumulative degradation by measuring AUC at 0.01 nM measured over 24 hrs by luminescence based analysis; assay type: cell-based
[24] = biological target: T1, Protein cereblon/CREB-binding protein (Homo sapiens); experiment: PROTAC activity at CRBN/HiBiT-tagged CBP in human HAP1 cells assessed as induction of CBP degradation by measuring degradation rate at 1 nM measured over 24 hrs by luminescence based analysis; assay type: cell-based
[25] = biological target: T1, Protein cereblon/CREB-binding protein (Homo sapiens); experiment: PROTAC activity at CRBN/HiBiT-tagged CBP in human HAP1 cells assessed as induction of CBP degradation by measuring degradation rate at 10 nM measured over 24 hrs by luminescence based analysis; assay type: cell-based
[26] = biological target: T1, Protein cereblon/CREB-binding protein (Homo sapiens); experiment: PROTAC activity at CRBN/HiBiT-tagged CBP in human HAP1 cells assessed as induction of CBP degradation by measuring maximal efficacy at 10 nM measured over 24 hrs by luminescence based analysis relative to control; assay type: cell-based
[27] = biological target: T1, Protein cereblon/CREB-binding protein (Homo sapiens); experiment: PROTAC activity at CRBN/HiBiT-tagged CBP in human HAP1 cells assessed as total cumulative degradation by measuring AUC at 1 nM measured over 24 hrs by luminescence based analysis; assay type: cell-based
[28] = biological target: T2, Protein cereblon/Histone acetyltransferase p300 (Homo sapiens); experiment: PROTAC activity at CRBN/HiBiT-tagged p300 in human HAP1 cells assessed as induction of p300 degradation by measuring maximal efficacy at 100 nM measured over 24 hrs by luminescence based analysis relative to control; assay type: cell-based
[29] = biological target: T1, Protein cereblon/CREB-binding protein (Homo sapiens); experiment: Binding affinity to recombinant CRBN/CBP bromodomain (unknown origin) assessed as ternary complex formation at 10 to 100 nM by Alphascreen-based proximity assay; assay type: protein assay; conditions: dose 10-100 nM
[30] = biological target: T2, Protein cereblon/Histone acetyltransferase p300 (Homo sapiens); experiment: PROTAC activity at CRBN/HiBiT-tagged p300 in human HAP1 cells assessed as induction of p300 degradation by measuring degradation rate at 100 nM measured over 24 hrs by luminescence based analysis; assay type: cell-based
[31] = biological target: T2, Protein cereblon/Histone acetyltransferase p300 (Homo sapiens); experiment: PROTAC activity at CRBN/HiBiT-tagged p300 in human HAP1 cells assessed as induction of p300 degradation by measuring maximal efficacy at 1000 nM measured over 24 hrs by luminescence based analysis relative to control; assay type: cell-based
[32] = biological target: T1, Protein cereblon/CREB-binding protein (Homo sapiens); experiment: PROTAC activity at CRBN/HiBiT-tagged CBP in human HAP1 cells assessed as induction of CBP degradation by measuring maximal efficacy at 1 nM measured over 24 hrs by luminescence based analysis relative to control; assay type: cell-based
[33] = biological target: T2, Protein cereblon/Histone acetyltransferase p300 (Homo sapiens); experiment: PROTAC activity at CRBN/HiBiT-tagged p300 in human HAP1 cells assessed as total cumulative degradation by measuring AUC at 0.1 nM measured over 24 hrs by luminescence based analysis; assay type: cell-based

| Structure (SMILES) | Activity [1] | AUC [2] | AUC [3] | Activity [4] [h⁻¹] | AUC [6] | AUC [7] | Emax [9] [%] | AUC [10] | Activity [11] [h⁻¹] | AUC [12] | Activity [13] [h⁻¹] | Activity [14] | Activity [15] [h⁻¹] | Activity [16] [h⁻¹] | AUC [17] | AUC [18] | Emax [19] [%] | Emax [20] [%] | AUC [21] | Emax [22] [%] | further results |
| --- | --- | --- | --- | --- | --- | --- | --- | --- | --- | --- | --- | --- | --- | --- | --- | --- | --- | --- | --- | --- | --- |
| CNC(=O)N1CCc2c(c(N3CCCc4cc(-c5cnn(C)c5)c(C(F)F)cc43)nn2C2CCN(C(=O)CCOCCNc3ccc4c(c3)C(=O)N(C3CCC(=O)NC3=O)C4=O)CC2)C1 (stereo unspecified) | inactive | 10.3 | 16.1 | 0.35 | 23.7 | 19.5 | 44 | 12.1 | 0.19 | 27.3 | 0.2 | Active | 0.09 | 0.36 | 9.2 | 9.4 | 71 | 65 | 16.5 | 64 | Activity [5]: 1.2 10^-4/hr; Emax [8]: 11%; AUC [23]: 25.6; Activity [24]: 0.26 h⁻¹; Activity [25]: 0.31 h⁻¹; Emax [26]: 68%; AUC [27]: 15.6; Emax [28]: 73%; Activity [29]: Active; Activity [30]: 0.29 h⁻¹; Emax [31]: 58%; Emax [32]: 44%; AUC [33]: 24.7 |
| CNC(=O)N1CCc2c(c(N3CCCc4cc(-c5cnn(CC(=O)NCCOCCNc6ccc7c(c6)C(=O)N(C6CCC(=O)NC6=O)C7=O)c5)c(C(F)F)cc43)nn2C2CCOCC2)C1 (stereo unspecified) | inactive | 16 | 22.6 | 0.22 | 25.5 | 15.1 | 18 | 12.1 | 0.22 | 25.7 | 0.004 | Active | 0.14 | 0.12 | 13.7 | 10.4 | 55 | 63 | 13.5 | 59 | AUC [23]: 24.2; Activity [24]: 1.5 10^-4/hr; Activity [25]: 0.21 h⁻¹; Emax [26]: 44%; AUC [27]: 22.6; Emax [28]: 69%; Activity [29]: Active; Activity [30]: 0.26 h⁻¹; Emax [31]: 65%; Emax [32]: 20%; AUC [33]: 27.3 |
| CNC(=O)N1CCc2c(c(N3CCCc4cc(-c5cnn(C)c5)c(C(F)F)cc43)nn2C2CCN(C(=O)CCOCCOCCOCCOCCOCCOCCNc3ccc4c(c3)C(=O)N(C3CCC(=O)NC3=O)C4=O)CC2)C1 (stereo unspecified) | inactive | 8.1 | 18.6 | 0.49 | 24.2 | 6.6 | 32 | 4.7 | 0.79 | 27.3 | 0.19 | Active | 0.46 | 0.42 | 9.3 | 5.2 | 68 | 86 | 6 | 81 | Emax [8]: 8.6%; AUC [23]: 26.3; Activity [24]: 0.27 h⁻¹; Activity [25]: 0.68 h⁻¹; Emax [26]: 72%; AUC [27]: 17.8; Emax [28]: 83%; Activity [29]: Active; Activity [30]: 0.74 h⁻¹; Emax [31]: 83%; Emax [32]: 33%; AUC [33]: 26.4 |
